Assay results as given in US9884832B2 (priority 2011, dated 2018).

Target: AM2 S31 (wild-type serine at position 31 in the M2 protein), influenza virus A/Udorn/72 (Influenza A virus, UniProt P0DOF5)
Assay: cell-based
Conditions: 100 uM; Xenopus oocytes; activity range class; read-out: S31 OOcyte Inhibition at 100 uM (%)

Sequence of AM2 S31 (wild-type serine at position 31 in the M2 protein), influenza virus A/Udorn/72 (P0DOF5 whole entry, looked up): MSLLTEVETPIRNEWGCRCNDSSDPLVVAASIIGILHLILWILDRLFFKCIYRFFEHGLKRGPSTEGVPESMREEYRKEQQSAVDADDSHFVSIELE

SMILES	inhibition at 100 µM [%]
Oc1c(CNC23CC4CC(CC(C4)C2)C3)ccc2ccccc12 [Example 53a, 2-(Adamantan-1-ylaminomethyl)-naphthalen-1-ol]	31 to 95
c1coc(CNC23CC4CC(CC(C4)C2)C3)c1 [Example 69a, Adamantan-1-yl-furan-2-ylmethyl-amine]	31 to 95
CCc1nc(CNC23CC4CC(CC(C4)C2)C3)no1 [Example 165a]	31 to 95
OC12CC3CC(C1)CC(NCc1cccs1)(C3)C2 [Example 187a, 3-[(Thiophen-2-ylmethyl)-amino]adamantan-1-ol]	0 to 30
Clc1cc2cc(CNC34CC5CC(CC(C5)C3)C4)sc2s1 [Example 173a, Adamantan-1-yl-(5-chloro-thieno[2,3-b]thiophen-2-ylmethyl)-amine]	31 to 95
Oc1cc(-c2cc3ccccc3o2)ccc1CNC12CC3CC(CC(C3)C1)C2 [Example 48a]	0 to 30
c1nc(CNC23CC4CC(CC(C4)C2)C3)no1 [Example 73a, Adamantan-1-yl-[1,2,4]oxadiazol-3-ylmethyl-amine]	31 to 95
c1cc(-c2ccc(CNC34CC5CC(CC(C5)C3)C4)cn2)cs1 [Example 59a, N-((6-(thiophen-3-yl)pyridin-3-yl)methyl)adamantan-1-amine]	0 to 30
Brc1ccc(CNC23CC4CC(CC(C4)C2)C3)nc1 [Example 54a, Adamantan-1-yl-(5-bromo-pyridin-2-ylmethyl)-amine]	31 to 95
OC12CC3CC(C1)CC(NCc1cc4sccc4s1)(C3)C2 [Example 192a, 3-[(Thieno[3,2-b]thiophen-2-ylmethyl)-amino]-adamantan-1-ol]	0 to 30
c1cc(-c2cc(CNC34CC5CC(CC(C5)C3)C4)no2)cs1 [Example 150a, Adamantan-1-yl-(5-thiophen-3-yl-isoxazol-3-ylmethyl)-amine]	0 to 30
O=c1[nH]cc(CNC23CC4CC(CC(C4)C2)C3)c(=O)[nH]1 [Example 169a, 5-((adamantan-1-ylamino)methyl)pyrimidine-2,4(1H,3H)-dione]	0 to 30
C(#Cc1ccccc1)CNC12CC3CC(CC(C3)C1)C2 [Example 198a, N-(3-phenylprop-2-yn-1-yl)adamantan-1-amine]	0 to 30
COc1cc(Cl)sc1CNC12CC3CC(CC(C3)C1)C2 [Example 80a]	31 to 95
c1ccc(-c2cc(CNC34CC5CC(CC(C5)C3)C4)no2)cc1 [Example 116a, N-((5-phenylisoxazol-3-yl)methyl)adamantan-1-amine]	0 to 30
Cc1noc(C)c1-c1ccc(CNC23CC4CC(CC(C4)C2)C3)cc1 [Example 33a, N-(4-(3,5-Dimethylisoxazol-4-yl)benzyl)adamantan-1-amine]	0 to 30
OC12CC3CC(C1)CC(NCc1ccc(Br)s1)(C3)C2 [Example 188a, 3-[(5-Bromo-thiophen-2-ylmethyl)-amino]adamantan-1-ol]	0 to 30
Brc1cnc(CNC23CC4CC(CC(C4)C2)C3)s1 [Example 86a, Adamantan-1-yl-(5-bromo-thiazol-2-ylmethyl)-amine]	0 to 30
COc1ccsc1CNC12CC3CC(CC(C3)C1)C2 [Example 74a, Adamantan-1-yl-(3-methoxy-thiophen-2-ylmethyl)-amine]	31 to 95
c1csc(C2=NOC(CNC34CC5CC(CC(C5)C3)C4)C2)c1 (centres unmarked) [Example 168a, N-((3-(thiophen-2-yl)-4,5-dihydroisoxazol-5-yl)methyl)adamantan-1-amine]	0 to 30
Cc1ccc(-c2cc(CNC34CC5CC(CC(C5)C3)C4)no2)cc1 [Example 120a, N-((5-(p-tolyl)isoxazol-3-yl)methyl)adamantan-1-amine]	0 to 30
c1cc(-c2ccc(CNC34CC5CC(CC(C5)C3)C4)s2)co1 [Example 137a, N-((5-(Furan-3-yl)thiophen-2-yl)methyl)adamantan-1-amine]	0 to 30

Same assay, conditions: Table 1; 100 uM; Xenopus oocytes, pH 5.5, -20 mV; read-out: S31 OOcyte Inhibition at 100 uM (%)

SMILES	inhibition at 100 µM [%]
c1cc2sc(CNC34CC5CC(CC(C5)C3)C4)cc2s1 [Example 81, Adamantan-1-yl-thieno[3,2-b]thiophen-2-ylmethyl-amine]	31 to 95
Oc1ccc(CNC23CC4CC(CC(C4)C2)C3)c(O)c1 [Example 46, 4-(Adamantan-1-ylaminomethyl)-benzene-1,3-diol]	31 to 95
c1cn2cc(CNC3C4CC5CC(C4)CC3C5)nc2s1 (centres unmarked) [Example 107, Adamantan-2-yl-imidazo[2,1-b]thiazol-6-ylmethyl-amine]	31 to 95
COc1ccc(F)c(CNC23CC4CC(CC(C4)C2)C3)c1 [Example 63, Adamantan-1-yl-(2-fluoro-5-methoxy-benzyl)-amine]	31 to 95
Oc1cccc(CNC23CC4CC(CC(C4)C2)C3)c1O [Example 64, 3-(Adamantan-1-ylaminomethyl)-benzene-1,2-diol]	31 to 95
Oc1ccc(CNC2C3CC4CC(C3)CC2C4)cc1O (centres unmarked) [Example 101, 4-(Adamantan-2-ylaminomethyl)-benzene-1,2-diol]	31 to 95
c1csc(-c2ccc(CNC34CC5CC(CC(C5)C3)C4)s2)c1 [Example 78, N-([2,2′-Bithiophen]-5-ylmethyl)adamantan-1-amine]	0 to 30
OCc1ccc(CNC23CC4CC(CC(C4)C2)C3)o1 [Example 77, [5-(Adamantan-1-ylaminomethyl)-furan-2-yl]methanol]	0 to 30
Clc1c(CNC23CC4CC(CC(C4)C2)C3)nc2sccn12 [Example 87, Adamantan-1-yl-(5-chloro-imidazo[2,1-b]thiazol-6-ylmethyl)-amine]	0 to 30
Nc1ccc(CNC23CC4CC(CC(C4)C2)C3)cc1 [Example 11, Adamantan-1-yl-(4-amino-benzyl)-amine]	31 to 95
c1ccc(CNC23CC4CC(CC(C4)C2)C3)cc1 [Example 8, Adamantan-1-yl-benzyl-amine]	31 to 95
COc1cc(F)c(CNC23CC4CC(CC(C4)C2)C3)c(F)c1 [Example 67, Adamantan-1-yl-(2,6-difluoro-4-methoxy-benzyl)-amine]	31 to 95
Oc1ccc(CNC23CC4CC(CC(C4)C2)C3)c(Cl)c1 [Example 58, 4-(Adamantan-1-ylaminomethyl)-3-chloro-phenol]	31 to 95
CC(NCc1ccc(O)cc1)C12CC3CC(CC(C3)C1)C2 (centres unmarked) [Example 4, 4-[(1-Adamantan-1-yl-ethylamino)-methyl]-phenol]	31 to 95
COc1cc(O)cc(OC)c1CNC12CC3CC(CC(C3)C1)C2 [Example 66, 4-(Adamantan-1-ylaminomethyl)-3,5-dimethoxy-phenol]	31 to 95
Oc1c(F)c(F)c(CNC23CC4CC(CC(C4)C2)C3)c(F)c1F [Example 71, 4-(Adamantan-1-ylaminomethyl)-2,3,5,6-tetrafluoro-phenol]	0 to 30
c1ccc2oc(CNC34CC5CC(CC(C5)C3)C4)cc2c1 [Example 89, Adamantan-1-yl-benzofuran-2-ylmethyl-amine]	0 to 30

Same assay, conditions: Table 3; 100 uM; Xenopus oocytes, pH 5.5, -20 mV; read-out: S31 OOcyte Inhibition at 100 uM (%)

SMILES	inhibition at 100 µM [%]
CN(C)c1ncc(CNC23CC4CC(CC(C4)C2)C3)cn1 [Example 59b, N-((2-dimethylaminopyrimidin-5-yl)methyl)adamantan-1-amine]	0 to 30
Clc1ccc(CNC23CC4CC(CC(C4)C2)C3)nn1 [Example 70b, Adamantan-1-yl-(6-chloro-pyridazin-3-ylmethyl)-amine]	31 to 95
Cn1cc(CNC23CC4CC(CC(C4)C2)C3)nn1 [Example 18b, N-((1-methyl-1H-1,2,3-triazol-4-yl)methyl)adamantan-1-amine]	0 to 30
c1nc(N2CCCC2)ncc1CNC12CC3CC(CC(C3)C1)C2 [Example 54b, N-((2-(pyrrolidin-1-yl)pyrimidin-5-yl)methyl)adamantan-1-amine]	0 to 30
CSc1ccc(-c2cc(CNC34CC5CC(CC3C5)C4)no2)cc1 [Example 90b, (2R,3as,5S,6as)-N-((5-(4-(methylthio)phenyl)isoxazol-3-yl)methyl)octahydro-2,5-methanopentalen-3a-amine]	0 to 30
C(#Cc1cccs1)CNC12CC3CC(CC(C3)C1)C2 [Example 88b]	0 to 30
OC12CC3CC(C1)CC(NCc1noc(C4CCCCC4)n1)(C3)C2 [Example 86b, (1s,3r,5R,7S)-3-(((5-cyclohexyl-1,2,4-oxadiazol-3-yl)methyl)amino)adamantan-1-ol]	0 to 30
c1cc2[nH]c(CNC34CC5CC(CC(C5)C3)C4)cc2o1 [Example 78b, Adamantan-1-yl-(4H-furo[3,2-b]pyrrol-5-ylmethyl)-amine]	31 to 95
COc1ccsc1-c1cc(CNC23CC4CC(CC(C4)C2)C3)no1 [Example 44b, N-((5-(3-methoxythiophen-2-yl)isoxazol-3-yl)methyl)adamantan-1-amine]	0 to 30
COc1ccc2nc(CNC34CC5CC(CC(C5)C3)C4)[nH]c2c1 [Example 79b, Adamantan-1-yl-(6-methoxy-1H-benzoimidazol-2-ylmethyl)-amine]	0 to 30
OC12CC3CC(C1)CC(NCc1noc(-c4ccccc4)n1)(C3)C2 [Example 84b, (1s,3r,5R,7S)-3-(((5-phenyl-1,2,4-oxadiazol-3-yl)methyl)amino)adamantan-1-61]	0 to 30
FC(F)(F)Oc1ccc(-c2cc(CNC34CC5CC(CC(C5)C3)C4)no2)cc1 [Example 36b, N-((5-(4-(trifluoromethoxy)phenyl)isoxazol-3-yl)methyl)adamantan-1-amine]	0 to 30
Oc1cc(Cl)ccc1CNC12CC3CC(CC(C3)C1)C2 [Example 9b, 2-((-Adamantan-1-ylamino)methyl)-5-chlorophenol]	31 to 95
COc1ccc(Cc2nc(CNC34CC5CC(CC(C5)C3)C4)no2)cc1OC [Example 28b, N-((5-(3,4-dimethoxybenzyl)-1,2,4-oxadiazol-3-yl)methyl)adamantan-1-amine]	0 to 30
